Assay results as given in publication PMC2785468, “Androgen Receptor Mutations Associated with Androgen Insensitivity Syndrome: A High Content Analysis Approach Leading to Personalized Medicine” (PLoS ONE, 2009).

Target: T1, AR-P766S (Homo sapiens, UniProt P10275, P767S)
T1 construct: expressed in transfected cells
T1 sequence (P10275 1-920 P767S): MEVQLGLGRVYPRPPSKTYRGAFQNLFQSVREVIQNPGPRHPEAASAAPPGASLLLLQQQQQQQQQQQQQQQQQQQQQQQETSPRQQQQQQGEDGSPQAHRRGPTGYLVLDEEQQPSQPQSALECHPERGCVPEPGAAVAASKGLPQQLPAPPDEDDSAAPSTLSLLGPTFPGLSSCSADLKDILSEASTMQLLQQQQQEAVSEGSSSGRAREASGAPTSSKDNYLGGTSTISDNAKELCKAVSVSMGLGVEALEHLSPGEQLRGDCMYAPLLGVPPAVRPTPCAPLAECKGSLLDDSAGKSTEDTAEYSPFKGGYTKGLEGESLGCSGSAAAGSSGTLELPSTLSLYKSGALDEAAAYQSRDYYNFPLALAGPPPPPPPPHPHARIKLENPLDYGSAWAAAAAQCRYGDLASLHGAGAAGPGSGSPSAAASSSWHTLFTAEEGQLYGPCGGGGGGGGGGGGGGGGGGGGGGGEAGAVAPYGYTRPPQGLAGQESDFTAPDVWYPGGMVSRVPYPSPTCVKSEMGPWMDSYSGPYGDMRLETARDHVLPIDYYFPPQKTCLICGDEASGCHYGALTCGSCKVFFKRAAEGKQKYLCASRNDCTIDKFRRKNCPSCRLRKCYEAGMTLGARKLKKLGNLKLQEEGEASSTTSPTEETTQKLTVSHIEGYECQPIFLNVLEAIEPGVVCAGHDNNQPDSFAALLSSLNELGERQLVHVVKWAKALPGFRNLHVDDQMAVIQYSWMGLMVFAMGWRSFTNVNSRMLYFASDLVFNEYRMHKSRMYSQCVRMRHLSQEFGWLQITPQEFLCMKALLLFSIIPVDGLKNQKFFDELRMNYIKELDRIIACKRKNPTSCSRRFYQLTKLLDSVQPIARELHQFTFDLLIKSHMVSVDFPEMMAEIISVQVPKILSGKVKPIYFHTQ
Format: cell-based
Conditions: HeLa P766S
Procedure: To determine the global effect of the various AIS mutations on AR signaling, each was analyzed using HCA. This technology allows simultaneous quantification of AR protein expression, nuclear translocation, subnuclear patterning, and transcriptional activity. The analysis was done in HeLa cell lines stably transfected with wild type or mutant ARs fused with green fluorescent protein, or using AR immunofluorescence in primary cultures of genital skin fibroblasts generated from foreskin biopsies of historical AIS patients, or of normal neonates undergoing circumcision at birth. To prevent the effects of receptor over-expression, stable HeLa cells were carefully selected to express AR levels similar to LNCaP as previously described. Prior to ligand treatment, HeLa cells were transfected with the pARR2PB-dsRED2skl reporter plasmid, consisting of the AR responsive promoter ARR2PB [31] driving expression of the red fluorescent protein reporter dsRED2skl engineered to target peroxisomes.
For studies utilizing HeLa GFP-AR cell lines, twenty-four hours before transfection with pARR2PB-dsRED2skl, cells were plated onto 100 mm plastic dishes in medium supplemented with 5% charcoal-stripped and dialyzed-FBS. Transient introduction of the pARR-2PB-dsRED2skl reporter construct was performed using 6.0 µg reporter plasmid and 6.0 µg carrier DNA (BlueScript, Stratagene, San Diego, CA) using Transfectin (Biorad) following standard protocols. After 8-hour incubation, DNA/lipid complexes were removed. Cells were then trypsinized and replated at 10,000 cells per well in Nunc poly-D-lysine treated 96-well optical glass bottom plates and incubated an additional 12 hours to allow for cell adhesion. […] Compound dilutions and final addition to multi-well plates were performed using a Beckman Biomek NX robotic platform to ensure repeatability from experiment to experiment. After incubation was complete, using the Biomek NX robot, plates were washed with PBS and fixed for 20 min at RT in 4% formaldehyde prepared in CSK buffer (80 mM potassium PIPES, pH 6.8, 5 mM EGTA, 2 mM MgCl2). After fixation, cells were briefly permeabilized (5 min) with 0.5% Triton-X and prepared for imaging by washing in PBS, aspirating the washed solution, and adding a 1 ng/ml DAPI solution to stain DNA and a generic protein stain (CellMask, Invitrogen) to facilitate cell and nuclear image segmentation. Cells were imaged in PBS.
Cells were imaged using the Cell Lab IC-100 Image Cytometer (IC-100; Beckman Coulter) platform that consists of 1) Nikon Eclipse TE2000-U Inverted Microscope (Nikon; Melville, NY); 2) Chroma 82000 triple band filter set (Chroma; Brattleboro, VT); 3) an imaging camera: Hamamatsu ORCA-ER Digital CCD camera (Hamamatsu; Bridgewater, NJ); and 4) a focusing camera: Photonics COHU Progressive scan camera (Photonics; Oxford, MA). […] In general, 49 to 64 images were captured per well for image analysis.
While our initial AR studies using HTM were based upon CytoShop (Beckman-Coulter), [15], [33], these approaches were refined in the current work with the more robust server-client Pipeline Pilot image analysis platform (Basic and Advanced Imagine Collections, Pipeline Pilot 7.5, Accelrys, San Diego). Initially, the background signal was removed from all images using plate- and channel-specific correction images, generated by the sum projection of >600 randomly selected images for each channel from the image set. This allows for a pixel-by-pixel background subtraction that compensates any consistent uneven background artifacts in the image set. Furthermore, users are able to customize the degree of background subtraction by applying a multiplier to each correction image, useful for identification of objects such as nuclei or cell borders. After background subtraction, nuclear masks were generated using a combination of non-linear least squares and watershed-from-markers image manipulations of the DAPI images (Fig. 1B).

C[C@@H]1CC2=CC(=O)CC[C@@H]2[C@H]2CC[C@@]3(C)[C@@H](CC[C@]3(C)O)[C@@H]21 [Mb, Mibolerone]
Nuclear Translocation, Max (% signal present in the nucleus): 78.9±1.5% | Hyperspeckling, Max (absolute numerical measurement): 785±30 | Transcriptional Activity, Max (pARR2PB-dsRED2skl reporter, absolute numerical measurement): 98±2.2
